This experiment addresses T1, FRAP1 (mTOR) (Homo sapiens, UniProt P42345).
T1 construct: purchased Thermo Fisher Scientific (Life Technologies) SelectScreen
Description: SelectScreen Z'LYTE. It counts as biochemical. The method in brief: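 NU5455 was profiled across the SelectScreen Broad panel of kinase activity and binding assays. Z'LYTE reactions such as CSF1R ran at apparent Km ATP, while the Adapta CAMK1 assay used ATP listed as 10. Values are given as percent.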

What is called inhibition is the share of the control response that was lost under treatment. A low value points to little suppression. `CN(C(=O)CN1CCOCC1)c1ccc2sc3c(-c4cccc5c(=O)cc(N6CC7CCC(C6)O7)oc45)cccc3c2c1` [NU5455] registered an inhibition at 1 µM of 5.7%.

For the origin of these results see PMC6934184, “Selective DNA-PKcs inhibition extends the therapeutic index of localized radiotherapy and chemotherapy” (The Journal of Clinical Investigation, 2019).
